Results from ChEMBL document CHEMBL1132731, “Synthesis and antibacterial activities of novel C(3)-aminopyrimidinyl substituted cephalosporins including against respiratory tract pathogens” (2000).
Values after ≈ are worked out from the molar mass of the structure shown.

Experiments:
Format in all cases: functional
[1] = Minimal inhibitory concentration against Enterococcus faecalis 29212
Staphylococcus aureus [2] = assay: Minimal inhibitory concentration against methicillin resistant Staphylococcus aureus 77
[3] = Minimal inhibitory concentration against Moraxella catarrhalis 25240
Klebsiella pneumoniae = assay: Minimal inhibitory concentration against Klebsiella pneumonia 2011E
Streptococcus pneumoniae = assay: Minimal inhibitory concentration against Streptococcus pneumonia PN010, penicillin resistant
Escherichia coli = assay: Minimal inhibitory concentration against Escherichia coli 3190Y
Staphylococcus aureus [4] = assay: Minimal inhibitory concentration against methicillin susceptible Staphylococcus aureus giorgio
[5] = Minimal inhibitory concentration against Haemophilus influenza HIN003, beta lactamase producing resistant strain; conditions: Haemophilus influenzae
[6] = Minimal inhibitory concentration against Proteus vulgaris 6059

Row | SMILES | MIC [1] | MIC (Staphylococcus aureus [2]) | MIC [3] | MIC (Klebsiella pneumoniae) | MIC (Streptococcus pneumoniae) | MIC (Escherichia coli) | MIC (Staphylococcus aureus [4]) | MIC [5] | MIC [6]
1 | C#CCO/N=C(\C(=O)NC1C(=O)N2C(C(=O)O)=C(Sc3cc(N)nc(N)n3)CSC12)c1csc(N)n1 (configuration not stated) | 32 µg/mL (≈ 58.4 µM) | 4 µg/mL (≈ 7.3 µM) | 0.016 µg/mL (≈ 0.0292 µM) | 2 µg/mL (≈ 3.65 µM) | 0.25 µg/mL (≈ 0.457 µM) | 0.13 µg/mL (≈ 0.237 µM) | 0.5 µg/mL (≈ 0.913 µM) | 0.031 µg/mL (≈ 0.0566 µM) | 0.031 µg/mL (≈ 0.0566 µM)
2 | Nc1nc(O)cc(SCSC2=C(C(=O)O)N3C(=O)C(NC(=O)/C(=N\O)c4nc(N)sc4Cl)C3SC2)n1 (configuration not stated) | 1 µg/mL (≈ 1.69 µM) | 1 µg/mL (≈ 1.69 µM) | 0.063 µg/mL (≈ 0.107 µM) | 2 µg/mL (≈ 3.38 µM) | 0.5 µg/mL (≈ 0.846 µM) | 0.25 µg/mL (≈ 0.423 µM) | 0.13 µg/mL (≈ 0.22 µM) | 0.031 µg/mL (≈ 0.0524 µM) | 0.13 µg/mL (≈ 0.22 µM)
3 | Nc1cc(SC2=C(C(=O)O)N3C(=O)C(NC(=O)/C(=N\O)c4nc(N)sc4Cl)C3SC2)nc(N)n1 (configuration not stated) | 2 µg/mL (≈ 3.68 µM) | 2 µg/mL (≈ 3.68 µM) | < 0.008 µg/mL | 2 µg/mL (≈ 3.68 µM) | 1 µg/mL (≈ 1.84 µM) | 0.25 µg/mL (≈ 0.46 µM) | 0.25 µg/mL (≈ 0.46 µM) | 0.5 µg/mL (≈ 0.919 µM) | 0.5 µg/mL (≈ 0.919 µM)
4 | Nc1nc(/C(=N/O)C(=O)NC2C(=O)N3C(C(=O)O)=C(SCSc4nc(O)nc(N)c4N)CSC23)c(Cl)s1 (configuration not stated) | 4 µg/mL (≈ 6.6 µM) | 4 µg/mL (≈ 6.6 µM) | 0.13 µg/mL (≈ 0.214 µM) | 1 µg/mL (≈ 1.65 µM) | 2 µg/mL (≈ 3.3 µM) | 0.25 µg/mL (≈ 0.412 µM) | 0.5 µg/mL (≈ 0.825 µM) | 0.016 µg/mL (≈ 0.0264 µM) | 0.25 µg/mL (≈ 0.412 µM)
5 | CO/N=C(\C(=O)NC1C(=O)N2C(C(=O)O)=C(SCSc3cc(N)nc(N)n3)CSC12)c1csc(N)n1 (configuration not stated) | 64 µg/mL (≈ 112 µM) | 4 µg/mL (≈ 7.02 µM) | 0.5 µg/mL (≈ 0.878 µM) | 0.5 µg/mL (≈ 0.878 µM) | 0.13 µg/mL (≈ 0.228 µM) | 0.063 µg/mL (≈ 0.111 µM) | 0.25 µg/mL (≈ 0.439 µM) | 1 µg/mL (≈ 1.76 µM) | 0.016 µg/mL (≈ 0.0281 µM)
6 | Nc1cc(SCSC2=C(C(=O)O)N3C(=O)C(NC(=O)/C(=N\O)c4nc(N)sc4Cl)C3SC2)nc(N)n1 (configuration not stated) | 1 µg/mL (≈ 1.69 µM) | 1 µg/mL (≈ 1.69 µM) | 0.13 µg/mL (≈ 0.22 µM) | 1 µg/mL (≈ 1.69 µM) | 0.25 µg/mL (≈ 0.424 µM) | 0.25 µg/mL (≈ 0.424 µM) | 0.13 µg/mL (≈ 0.22 µM) | 0.5 µg/mL (≈ 0.847 µM) | 0.25 µg/mL (≈ 0.424 µM)
7 | C=CC1=C(C(=O)O)N2C(=O)[C@@H](NC(=O)/C(=N\O)c3csc(N)n3)[C@H]2SC1 [CEFDINIR] | 8 µg/mL (≈ 20.2 µM) | 4 µg/mL (≈ 10.1 µM) | 0.5 µg/mL (≈ 1.26 µM) | 0.13 µg/mL (≈ 0.329 µM) | 4 µg/mL (≈ 10.1 µM) | 0.031 µg/mL (≈ 0.0784 µM) | 0.063 µg/mL (≈ 0.159 µM) | 0.5 µg/mL (≈ 1.26 µM) | 0.031 µg/mL (≈ 0.0784 µM)
8 | Nc1cc(N)nc(SCSC2=C(C(=O)O)N3C(=O)C(NC(=O)/C(=N\O)c4nc(N)sc4Cl)C3SC2)n1 (configuration not stated) | 4 µg/mL (≈ 6.78 µM) | 4 µg/mL (≈ 6.78 µM) | 0.13 µg/mL (≈ 0.22 µM) | 8 µg/mL (≈ 13.6 µM) | 1 µg/mL (≈ 1.69 µM) | 1 µg/mL (≈ 1.69 µM) | 0.5 µg/mL (≈ 0.847 µM) | 0.016 µg/mL (≈ 0.0271 µM) | 1 µg/mL (≈ 1.69 µM)
9 | Nc1cc(N)nc(SCSC2=C(C(=O)O)N3C(=O)C(NC(=O)/C(=N\O)c4csc(N)n4)C3SC2)n1 (configuration not stated) | 4 µg/mL (≈ 7.2 µM) | 1 µg/mL (≈ 1.8 µM) | 1 µg/mL (≈ 1.8 µM) | 0.5 µg/mL (≈ 0.9 µM) | 1 µg/mL (≈ 1.8 µM) | 0.063 µg/mL (≈ 0.113 µM) | 0.13 µg/mL (≈ 0.234 µM) | 1 µg/mL (≈ 1.8 µM) | 0.031 µg/mL (≈ 0.0558 µM)
10 | Nc1nc(O)cc(SC2=C(C(=O)O)N3C(=O)C(NC(=O)/C(=N\O)c4nc(N)sc4Cl)C3SC2)n1 (configuration not stated) | 8 µg/mL (≈ 14.7 µM) | 2 µg/mL (≈ 3.67 µM) |  | 1 µg/mL (≈ 1.83 µM) | 0.5 µg/mL (≈ 0.917 µM) | 0.063 µg/mL (≈ 0.116 µM) | 0.25 µg/mL (≈ 0.459 µM) | 0.016 µg/mL (≈ 0.0294 µM) | 0.063 µg/mL (≈ 0.116 µM)
11 | CCO/N=C(\C(=O)NC1C(=O)N2C(C(=O)O)=C(Sc3cc(N)nc(N)n3)CSC12)c1csc(N)n1 (configuration not stated) | 64 µg/mL (≈ 119 µM) | 4 µg/mL (≈ 7.44 µM) | < 0.008 µg/mL | 2 µg/mL (≈ 3.72 µM) | 0.5 µg/mL (≈ 0.93 µM) | 0.13 µg/mL (≈ 0.242 µM) | 0.5 µg/mL (≈ 0.93 µM) | 0.063 µg/mL (≈ 0.117 µM) | 0.063 µg/mL (≈ 0.117 µM)
12 | CCO/N=C(\C(=O)NC1C(=O)N2C(C(=O)O)=C(Sc3cc(N)nc(N)n3)CSC12)c1nsc(N)n1 (configuration not stated) | 64 µg/mL (≈ 119 µM) | 4 µg/mL (≈ 7.43 µM) | < 0.008 µg/mL | 2 µg/mL (≈ 3.71 µM) | 0.25 µg/mL (≈ 0.464 µM) | 0.063 µg/mL (≈ 0.117 µM) | 1 µg/mL (≈ 1.86 µM) | 0.13 µg/mL (≈ 0.241 µM) | 0.063 µg/mL (≈ 0.117 µM)
13 | Nc1nc(O)cc(SC2=C(C(=O)O)N3C(=O)C(NC(=O)/C(=N\O)c4csc(N)n4)C3SC2)n1 (configuration not stated) | 4 µg/mL (≈ 7.83 µM) | 4 µg/mL (≈ 7.83 µM) | < 0.008 µg/mL | 8 µg/mL (≈ 15.7 µM) | 1 µg/mL (≈ 1.96 µM) | 0.5 µg/mL (≈ 0.979 µM) | 0.5 µg/mL (≈ 0.979 µM) | 1 µg/mL (≈ 1.96 µM) | 0.5 µg/mL (≈ 0.979 µM)
14 | Nc1cc(SCSC2=C(C(=O)O)N3C(=O)C(NC(=O)/C(=N\O)c4csc(N)n4)C3SC2)nc(N)n1 (configuration not stated) | 1 µg/mL (≈ 1.8 µM) | 1 µg/mL (≈ 1.8 µM) | 2 µg/mL (≈ 3.6 µM) | 0.5 µg/mL (≈ 0.9 µM) | 0.5 µg/mL (≈ 0.9 µM) | 0.031 µg/mL (≈ 0.0558 µM) | 0.13 µg/mL (≈ 0.234 µM) | 0.5 µg/mL (≈ 0.9 µM) | 0.031 µg/mL (≈ 0.0558 µM)
15 | Nc1cc(SC2=C(C(=O)O)N3C(=O)C(NC(=O)/C(=N\O)c4csc(N)n4)C3SC2)nc(N)n1 (configuration not stated) | 8 µg/mL (≈ 15.7 µM) | 2 µg/mL (≈ 3.92 µM) | < 0.008 µg/mL | 1 µg/mL (≈ 1.96 µM) | 0.5 µg/mL (≈ 0.981 µM) | 0.031 µg/mL (≈ 0.0608 µM) | 0.25 µg/mL (≈ 0.491 µM) | 0.13 µg/mL (≈ 0.255 µM) | 0.031 µg/mL (≈ 0.0608 µM)
16 | CO/N=C(\C(=O)NC1C(=O)N2C(C(=O)O)=C(Sc3cc(N)nc(N)n3)CSC12)c1csc(N)n1 (configuration not stated) | > 64 µg/mL | 4 µg/mL (≈ 7.64 µM) | < 0.008 µg/mL | 0.5 µg/mL (≈ 0.955 µM) | 0.5 µg/mL (≈ 0.955 µM) | 0.031 µg/mL (≈ 0.0592 µM) | 0.5 µg/mL (≈ 0.955 µM) | 0.016 µg/mL (≈ 0.0306 µM) | 0.016 µg/mL (≈ 0.0306 µM)
17 | Nc1ccnc(SCSC2=C(C(=O)O)N3C(=O)C(NC(=O)/C(=N\O)c4nc(N)sc4Cl)C3SC2)n1 (configuration not stated) | 2 µg/mL (≈ 3.48 µM) | 2 µg/mL (≈ 3.48 µM) | 0.5 µg/mL (≈ 0.869 µM) | 8 µg/mL (≈ 13.9 µM) | 1 µg/mL (≈ 1.74 µM) | 1 µg/mL (≈ 1.74 µM) | 0.25 µg/mL (≈ 0.435 µM) | 0.25 µg/mL (≈ 0.435 µM) | 0.5 µg/mL (≈ 0.869 µM)
